Source: US20150025019A1, “Method for Dosage Adjustment of Drugs that Prevent Elastic Fiber Breakdown” (priority 2013, published 2015)
“Also recorded” adds a separate entry of the source.

Columns and labels:
[1] = system: lung inflammation in a cystic fibrosis model; details: cystic fibrosis model in mice; cited from earlier work
elastin fibers = details: in vitro; cited from earlier work
[2] = system: pulmonary emphysema induced by tobacco smoke; details: mice exposed to tobacco smoke over a 6-month period; cited from earlier work
[3] = therapy in cystic fibrosis; cited from earlier work
[4] = system: emphysema induced by elastase enzymes; details: animals; aerosol; cited from earlier work
elastin degradation = assay: Desmosine and isodesmosine concentrations in sputum, plasma and urine of COPD patients in the clinical trial; format: in vivo, human; details: 2 weeks of hyaluronan aerosol; for Levels of desmosine and isodesmosine in sputum: all 6 patients who provided sputum samples
Description: (§1) With this background, efforts continue to develop hyaluronan aerosol as a potential therapy for chronic obstructive pulmonary disease (COPD) related to alpha-1 antitrypsin deficiency (AATD) and not related to AATD. As part of that development this clinical safety trial was conducted in 11 COPD patients, 8 of whom received hyaluronan and 3 received placebo. The study protocol was conducted under IND number 70299. The primary aim of the study was to establish safety and to evaluate biomarker activity with respect to body and lung elastin degradation.
(§2) Each patient self-administered 0.01% hyaluronan from a vialed volume of 3 ml by aerosol from a compressor-delivered Pari nebulizer, morning and night for 14 days. The primary endpoints to assess safety were adverse events, oxygen saturation, spirometry, lung volumes, physical examination, vital signs, electrocardiogram and laboratory evaluations (CBC, serum chemistries and urinalysis). Additionally, desmosine and isodesmosine concentrations in sputum, plasma and urine were measured to assess a possible effect on elastin degradation (44, 45)
Sputum samples collected from patients with emphysema and other inflammatory lung diseases are chemically degraded to separate the component amino acids of elastic fibers and other proteins. This procedure may involve hydrolyzing the sample with an acid such as HCl or a base such as NaOH, according to procedures well known to the art. The resulting hydrolysate is then measured for total elastin-specific amino acids, desmosine and isodesmosine, using a variety of procedures, including liquid chromatography or immunoassay, ultraviolet spectroscopy, fluorescence spectroscopy, mass spectrometry, or other spectroscopic techniques well-known to the art.
Desmosine and isodesmosine content of the sputum sample is then normalized to one or more parameters, such as total protein, albumin, or free amino acids, according to procedures well known to the art. The final value is expressed as total desmosine/isodesmosine per unit volume, protein, albumin, amino acids or other relevant parameter. Results obtained from the same patient over time may be used to determine variations in the amount of lung elastic fiber injury.

elastic fiber breakdown = assay: Illustrative examples of titrating aerosolized hyaluronan by sputum desmosine and isodesmosine level; format: in vivo, human
Description: Examples of the use of the invention to titrate treatment with aerosolized hyaluronan are given below:
1) A patient with pulmonary emphysema is found to have an abnormally high level of sputum desmosine and isodesmosine (20 nanograms/gram protein compared to a normal level of less than 5 nanograms/g protein), and begins treatment with a dose of 0.1% hyaluronan that is inhaled for 20 minutes once daily in the morning. After 1 month, the sputum desmosine and isodesmosine level is measured and found to be 10 nanograms/g of protein in the sputum, which is more than twice the upper limit of normal. The patient is then switched to a twice daily inhalation for 20 minutes in the morning and evening. Two weeks later, the patient's sputum desmosine and isodesmosine level has fallen to 1 nanogram/g of protein, which is within the normal range. Their treatment is therefore left unchanged and sputum desmosine and isodesmsoine levels are measured at monthly intervals to ensure that the drug remains effective in preventing elastic fiber breakdown.
2) A patient with a history of smoking is tested for sputum desmosine and isodesmosine levels. They are found to have a mildly elevated level of 6 nanograms/g protein, and is placed on low dose hyaluronan, involving a single daily 20 minute inhalation of 0.05% hyaluronan. Two weeks later, their sputum desmosine and isodesmosine level is 1 nanogram/g protein, which is within the normal range. Based on this finding, their treatment is lowered to a 20 minute inhalation of hyaluronan every other day. Two weeks later, their sputum desmosine and isodesmsoine level has risen to 6 nanograms/g protein, which is above the upper limit of normal. Their treatment regimen is therefore returned to a 20 minute inhalation every day. Two weeks later, their sputum desmosine and isodesmosine level has fallen to 1 nanogram/g protein. Their treatment needs no further modification, and sputum desmosine and isodesmosine levels are measured at monthly intervals to ensure that the drug remains effective in preventing elastic fiber breakdown.

[5] = Clinical safety trial of hyaluronan aerosol in COPD patients: safety endpoints; format: in vivo, human
Description: as §1
Eleven patients were recruited from 2 Centers: 9 patients from Research Associates in Tucson Ariz. and 2 patients from St. Luke's-Roosevelt Hospital Pulmonary Disease Center in New York. All patients fulfilled the diagnostic criteria of COPD with GOLD grades 2 and 3 with moderate airway obstruction (FEV1 above 40% of predicted) and at least a ten pack-year history of cigarette smoking. No patients were actively smoking at the time of recruitment and smoking cessation had occurred over one year prior to the study in all patients. Six patients were male […]. All were Caucasian. Three patients received placebo. Eight patients received hyaluronan CTX-100.
as §2

[6] = listed as aerosolized hyaluronan

Substance: hyaluronan
- Lung inflammation [1]: reduce lung inflammation in a cystic fibrosis model in mice
- Elastase degradation of elastin fibers (elastin fibers): block elastase degradation of elastin fibers in vitro
- Pulmonary emphysema induced by tobacco smoke [2]: decrease the pulmonary emphysema induced in mice exposed to tobacco smoke
- Tolerability of hypertonic saline [3]: improve tolerability of hypertonic saline
- Severity of emphysema induced by elastase enzymes [4]: decrease the severity of emphysema induced by elastase enzymes
- Blood levels of desmosine and isodesmosine (elastin degradation): significant reduction
- Urine levels of desmosine and isodesmosine (elastin degradation): significant reduction
- Levels of desmosine and isodesmosine in sputum (elastin degradation): statistically significant reduction; also recorded: Reductions
- Levels of desmosine and isodesmosine in sputum (elastin degradation; [6]): statistically significant decline
- Blood levels of desmosine and isodesmosine (elastin degradation; [6]): statistically significant decline
- Urine levels of desmosine and isodesmosine (elastin degradation; [6]): statistically significant decline
- Sputum desmosine and isodesmosine level (elastic fiber breakdown; patient with history of smoking, start 6, single daily 20 minute inhalation of 0.05% hyaluronan, two weeks later): 1 nanogram/g protein
- Sputum desmosine and isodesmosine level (elastic fiber breakdown; patient with pulmonary emphysema, start 20, 0.1% hyaluronan inhaled 20 minutes once daily, after 1 month): 10 nanograms/g of protein
- Sputum desmosine and isodesmosine level (elastic fiber breakdown; same patient, 0.1% hyaluronan, twice daily 20 minute inhalation, two weeks later): 1 nanogram/g of protein
- Sputum desmosine and isodesmosine level (elastic fiber breakdown; same patient, 20 minute inhalation every other day, two weeks later): 6 nanograms/g protein
- Sputum desmosine and isodesmosine level (elastic fiber breakdown; same patient, returned to 20 minute inhalation every day, two weeks later): 1 nanogram/g protein
- Adverse events ([5]; 0.01% hyaluronan, 3 ml by aerosol, morning and night for 14 days): mild to moderate
- Effect on EKG ([5]; 2 weeks of administration): no significant effect
- Effect on routine laboratory procedures ([5]; 2 weeks of administration): no significant effect
- Effect on spirometric indices ([5]; 2 weeks of administration): no significant effect
